Data from US3992535A, “4-Hydroxy-2H-naphtho[2,1-e]-1,2-thiazine-3-carboxamide-1,1-dioxides and salts thereof” (priority 1974, dated 1976).
Counter-ions that a name gives are not always drawn. Like-named read-outs stand apart in the source and are kept apart here.

What was measured:
[1] = test system: kaolin-induced edema of the hind paw of the rat; assay: Kaolin edema of the hind paw of the rat; assay type: in vivo; settings: per os, 30 minutes before edema, 35% reduction of swelling at 5 hours
Protocol: (§1) Compound A and known compound B were tested to determine their actue antiexsudative effect on the kaolin-induced edema and the carrageenin-induced edema of the hind paw of the rat and their acute toxicity after oral administration in rats.
a. Kaolin edema of the hind paw of the rat:
(§2) The kaolin edema was induced according to the method of Hillebrecht [Arzneimittel-Forsch. 4, 607 (1954] by subplantar injection of 0.05 ml of a 10% suspension of kaolin in an aqueous 0.85% sodium chloride solution. Measurement of the thickness of the paws was effected using the technique of Doepfner and Cerletti [Int. Arch. Allergy Immunol. 12, 89 (1958)]. The test compound was administered perorally by means of an esophageal tube to male FW 49-rats having an average body weight of 120 to 150 gm 30 minutes before inducing the edema. 5 hours after the provocation of the edema, the average size of the swelling in the rats treated with the test compound was compared with the average size of the swelling in the control animals treated by a dummy procedure. By graphical extrapolation, the dose leading to a 35% reduction of the swelling (ED35) was calculated from the percentage reduction in the size of the swelling caused by the administration of different doses.

[2] = test system: carrageenin-induced edema of the hind paw of the rat; assay: Carrageenin edema of the back paw of the rat; assay type: in vivo; settings: per os, 60 minutes before edema, swelling at 3 hours
Protocol: as §1
b. Carrageenin edema of the back paw of the rat:
(§3) The provocation of the carrageenin edema was effected according to the method of Winter et al [Proc. Soc. exp. Biol. Med. 111, 544 (1962)] by subplantar injection of 0.05 ml of a 1% solution of carrageenin in an aqueous 0.85% solution of sodium chloride. The test compound was administered 60 minutes before the provocation of the edema.
(§4) For the calculation of the reductive effect on the edema, the size of the swelling was measured 3 hours after the provocation of the edema. All the other details were the same as described above in the case of the kaolin edema.

[3] = test system: kaolin- and carrageenin-induced edemas; assay: Kaolin and carrageenin edema combined: average ED35 and therapeutic ratio LD50/ED35; assay type: in vivo; settings: for ED35: Rattus norvegicus, read-out: Average value ED35; for Therapeutic ratio: ratio of toxic and anti-exsudative activity LD50 / ED35: oral LD50 / average ED35, rat
Protocol: as §2, §3, §4
The therapeutic index (a measure of the therapeutic usefulness) was calculated as the quotient of the oral LD50 value and the ED35 value derived from the tests to determine the antiexsudative activity against kaolin- and carrageenininduced edemas.

[4] = Acute toxicity in the rat, oral; assay type: in vivo; settings: in vivo, po, per os, male and female FW 49-rats, within 14 days
Protocol: (§5) The test compound was administered in the form of a trituration in tylose.
(§6) The calculation of the LD50 values was effected, to the extent possible, according to the method of Litchfield and Wilcoxon, based on the percentage of animals which died within 14 days after administration of the different doses.

[5] = test system: adjuvant arthritis in the rat; assay: Adjuvant arthritis in the rat; assay type: in vivo; settings: for ED50: po, 504 h, per os, once a day for 20 days, paw volume on 21st day, read-out: Adjuvant arthritis in the rat ED50 per os (average value of primary and secondary reaction); for activity against adjuvant arthritis compared with phenylbutazone (D) (in words): vs phenylbutazone (D)
Protocol: d. Adjuvant arthritis in the rat: The adjuvant arthritis tests in rats were carried out according to the method of Rosenthale and Nagra [Proc. Soc. exp. Biol. 125, 149 (1967)]. […] The test compound was administered once a day, starting with the day of the M. butyricum-injection, for a period of 20 days by means of an esophageal tube. […] An ED50 was determined graphically from the reduction of the swelling caused by the administration of different doses.

[6] = test system: rat; assay: Acute toxicity in the rat, oral; assay type: in vivo; settings: per os, vs compound E
Protocol: as §5, §6

[7] = test system: platelet stickiness in human citrate blood; assay: Morris test (platelet stickiness, retention on glass beads); assay type: cell-based; settings: for inhibition at 100 µM: Platelet, 10 min, 10^-^4 mol/liter, human citrate blood, read-out: Morris test (percentage reduction in the stickiness)
Protocol: The principle of the Morris test is described in "Stoffwechsel- and Membranpermeabilitat von Erythrozyten und Thrombozyten, I. Int.
1 ml of human citrate blood was pipetted into each of a number of small test tubes, the test compound was added in the desired concentrations, and the tubes were incubated at 37° C for 10 minutes. 2 gm each of glass beads (about 100 mesh) were added to half of the tubes. The tubes, stoppered by means of a plastic plug, were attached to a vertical wheel and rotated for 45 seconds end-over-end. The same tubes were then left to stand at ambient temperature for a further hour, after which time a sedimentation of erythrocytes and glass beads had taken place. 0.01 ml of the supernatant plasma was removed and diluted with 1:800 celloscope solution. The platelet count was read in a celloscope. The percentage of the thrombocytes retained in the sediment (adhering to the glass beads or aggregating) was calculated from the difference of the thrombocyte counts with and without glass contact.
The results were expressed in terms of the percentage reduction in the stickiness compared with the control (without addition of test compound).

[8] = test system: thrombocyte aggregation in the platelet-rich plasma of healthy human donors; assay: Born test; collagen aggregation; assay type: cell-based; settings: for inhibition at 0.1 µM: 10^-^7 mol/liter; for 50% diminution of aggregation: times lower concentration than compound N: vs compound N (acetylsalicylic acid)
Protocol: b. […] The rate of decline of the optical density of platelet suspensions was measured and recorded photometrically after the addition of commercial collagen. From the angle of inclination of the density curve, the rate of aggregation was estimated. The optical density was taken at the point on the curve where most light was transmitted. The amount of collagen was chosen such that an irreversible control curve was obtained. The results were expressed in terms of the optical density and represent the percentage change in light transmission (= % diminution of the aggregation) caused by the test compound compared with the untreated control.

[9] = Homo sapiens, 10^-^4 mol/liter, read-out: Born test (% diminution of the aggregation)
[10] = Homo sapiens, 10^-^5 mol/liter, read-out: Born test (% diminution of the aggregation)
[11] = Homo sapiens, 10^-^6 mol/liter, read-out: Born test (% diminution of the aggregation)
[12] = Homo sapiens, read-out: Born test (% diminution of the aggregation)

Compound	inhibition at 100 µM [8, 9]	inhibition at 10 µM [8, 10]	inhibition at 1 µM [8, 11]	inhibition at 0.1 µM [8, 12]	50% diminution of aggregation: times lower concentration than compound N [8]	also measured
COc1ccc2c(c1)c(CC(=O)O)c(C)n2C(=O)c1ccc(Cl)cc1 [B, indomethacin, reference compound]	–	–	–	–	–	ED35 [1]: 2.7 mg/kg; ED35 [2]: 2.9 mg/kg; ED35 [3]: 2.8 mg/kg; Therapeutic ratio: ratio of toxic and anti-exsudative activity LD50 / ED35 [3]: 9.2; LD50 at 336 h [4]: 25.7 mg/kg
CN1C(C(=O)Nc2ccccn2)=C(O)c2ccc3ccccc3c2S1(=O)=O [C, 4-Hydroxy-2-methyl-N-(2-pyridyl)-2H-naphtho[2,1-e]-1,2-thiazine-3-carboxamide-1,1-dioxide]	–	–	–	–	–	activity against adjuvant arthritis (in words) [5]: surprisingly strong activity; ED50 [5]: ~4 mg/kg; activity against adjuvant arthritis compared with phenylbutazone (D) (in words) [5]: far superior
CN1C(C(=O)Nc2nccs2)=C(O)c2ccc3ccccc3c2S1(=O)=O [Compound A, 4-Hydroxy-2-methyl-N-(2-thiazolyl)-2H-naphtho[2,1-e]-1,2-thiazine-3-carboxamide-1,1-dioxide]	96%	95%	92%	65%	–	ED35 [1]: 13.5 mg/kg; ED35 [2]: 11 mg/kg; ED35 [3]: 12.2 mg/kg; Therapeutic ratio: ratio of toxic and anti-exsudative activity LD50 / ED35 [3]: 16.9; therapeutic ratio relative to known compound B ([3]; vs compound B (indomethacin)): twice as great; LD50 at 336 h [4]: 207 mg/kg; toxicity compared with compound E (in words) [6]: less toxic; activity against adjuvant arthritis (in words) [5]: surprisingly strong activity; ED50 [5]: < 2 mg/kg; activity against adjuvant arthritis compared with phenylbutazone (D) (in words) [5]: far superior; inhibition at 100 µM [7]: 43%; 50% diminution of the aggregation: times lower concentration than compound E ([8]; vs compound E (sudoxicam)): at least 10 times lower; inhibiting effect on the thrombocyte aggregation compared with compound E (in words) ([8]; vs compound E (sudoxicam)): significantly stonger
CCCCC1C(=O)N(c2ccccc2)N(c2ccccc2)C1=O [D, phenylbutazone, reference compound]	–	–	–	–	–	ED50 [5]: ~40 mg/kg
CN1C(C(=O)Nc2nccs2)=C(O)c2ccccc2S1(=O)=O [E, 4-hydroxy-2-methyl-N-(2-thiazolyl)-2H-1,2-benzothiazine-3-carboxamide-1,1-dioxide, reference compound]	–	–	–	–	–	LD50 at 336 h [4]: 136 mg/kg; inhibition at 100 µM [7]: 3%; inhibition of the stickiness in the Morris test in comparison with compound A (in words) ([7]; vs compound A): practically ineffective; inhibition at 1 µM [8, 12]: 33%; inhibition at 10 µM [8, 12]: 91%; inhibition at 100 µM [8, 12]: 92%
CN1C(C(=O)Nc2cccc(Cl)c2)=C(O)c2ccc3ccccc3c2S1(=O)=O [F, N-(3-Chloro-phenyl)-4-hydroxy-2-methyl-2H-naphtho[2,1-e]-1,2-thiazine-3-carboxamide-1,1-dioxide]	96%	81%	35%	–	at least 20 times lower	–
Cc1cccc(NC(=O)C2=C(O)c3ccc4ccccc4c3S(=O)(=O)N2C)c1 [G, 4-Hydroxy-2-methyl-N-(3-tolyl)-2H-naphtho[2,1-e]-1,2-thiazine-3-carboxamide-1,1-dioxide]	97%	78%	65%	–	at least 20 times lower	–
Cc1ccnc(NC(=O)C2=C(O)c3ccc4ccccc4c3S(=O)(=O)N2C)c1 [H, Sodium salt of 4-hydroxy-2-methyl-N-(4-methyl-2-pyridyl)-2H-naphtho[2,1-e]-1,2-thiazine-3-carboxamide-1,1-dioxide]	95%	91%	82%	–	at least 100 times lower	–
CN1C(C(=O)Nc2cncc(Cl)n2)=C(O)c2ccc3ccccc3c2S1(=O)=O [I, N-(6-Chloro-2-pyrazinyl)-4-hydroxy-2-methyl-2H-naphtho[2,1-e]-1,2-thiazine-3-carboxamide-1,1-dioxide]	–	91%	91%	22%	at least 100 times lower	–
Cc1csc(NC(=O)C2=C(O)c3ccc4ccccc4c3S(=O)(=O)N2C)n1 [J, 4-Hydroxy-2-methyl-N-(4-methyl-2-thiazolyl)-2H-naphtho[2,1-e]-1,2-thiazine-3-carboxamide-1,1-dioxide]	92%	89%	88%	4%	at least 100 times lower	–
Cc1cnc(NC(=O)C2=C(O)c3ccc4ccccc4c3S(=O)(=O)N2C)s1 [K, 4-Hydroxy-2-methyl-N-(5-methyl-2-thiazolyl)-2H-naphtho[2,1-e]-1,2-thiazine-3-carboxamide-1,1-dioxide]	89%	97%	66%	–	at least 20 times lower	–
Cc1nc(NC(=O)C2=C(O)c3ccc4ccccc4c3S(=O)(=O)N2C)sc1C [L, N-(4,5-Dimethyl-2-thiazolyl)-4-hydroxy-2-methyl-2H-naphtho[2,1-e]-1,2-thiazine-3-carboxamide-1,1-dioxide]	91%	95%	88%	15%	at least 100 times lower	–
CCc1nc(NC(=O)C2=C(O)c3ccc4ccccc4c3S(=O)(=O)N2C)sc1C [M, N-(4-Ethyl-5-methyl-2-thiazolyl)-4-hydroxy-2-methyl-2H-naphtho[2,1-e]-1,2-thiazine-3-carboxamide-1,1-dioxide]	94%	91%	79%	24%	at least 100 times lower	–
CC(=O)Oc1ccccc1C(=O)O [N, acetylsalicylic acid, reference compound]	–	–	–	–	–	inhibition at 10 µM [8, 12]: 13%; inhibition at 30 µM [8, 12]: 45%; IC50 ([8]; Homo sapiens, read-out: concentration causing a 50% diminution of aggregation): ~40 µM
